Data set [1] relates to Tg(nphs2:GAL4-VP16); Tg(UAS:Eco.nfsB-mCherry) zebrafish larvae. Put plainly: Edema progression in zebrafish larvae after MTZ podocyte injury (FSGS model), edema types 1-4. Type of data set: in vivo. The conditions noted are these: for edema progression/formation at 10 μM: 10 μM compound in conjunction with MTZ, compared to MTZ group; for edema progression/formation at 10 μM / most effective concentration for prevention of proteinuric edema: until 8 dpf; for lethality at 100 μM: 100 μM compound in conjunction with MTZ (2 days); for effect in terms of proteinuric edema progression/formation: injury model, in conjunction with MTZ; for progression of podocyte injury induced in the disease model: zebrafish larvae model of FSGS, effects concentration-dependent; for most effective concentration for prevention of proteinuric edema: different concentrations in conjunction with MTZ. The procedure: The results are depicted in FIG. 4. A treatment for 48 hours from 4 to 6 dpf with MTZ induces edema formation of four different severities in this strain, scaling from type 1=no edema to type 4=severe edema (FIG. 3). Edema severity of larvae treated with DMSO, MTZ and MTZ plus 1 μM, 10 μM or 100 μM belinostat was categorized at 6, 7 and 8 dpf (FIG. 4). […] Co-treatment with MTZ and 100 μM belinostat induced edema formation in 15% of larvae with 0% type 4 edema in contrast to 60% edema with 31% type 4 edema in the MTZ group. At 7 dpf, progression of edema formation was decelerated in all three groups for all three types of edema that received belinostat, again in a dose-dependent manner. MTZ caused type 4 edema in 56.4% of larvae at 7 dpf, contrary to 1.9% edema in the MTZ+100 μM belinostat group. […] 83.6% of larvae treated with MTZ developed edema with 58.2% showing type 4 edema. […] 10 μM belinostat+MTZ induced edema 80% of larvae with 34.5% type 4 edema. Co-treatment of MTZ with 100 μM belinostat caused edema formation in 64.2% of larvae with 28.3% type 4 edema (FIG. 4).
FIG. 3 depicts the different degrees of podocyte injury progression: 1: no edema, 2: slight edema, 3: moderate edema, 4: severe edema. Black arrowheads show periocular and blank arrowheads depict abdominal edema. Scale bar: 500 μm.
FIG. 4 depicts the results of Example 3, measuring the edema progression in larvae that were treated with different concentrations of belinostat in conjunction with MTZ. Edema progression was measured according to the categories of in larvae until 8 dpf following MTZ injury with various concentration of belinostat (DMSO n=52, MTZ n=55, MTZ+1 μM belinostat n=52, MTZ+10 μM belinostat n=55, MTZ+100 μM belinostat n=53).

In data set [2] the test system is podocytes / glomerular filtration barrier of MTZ-injured zebrafish larvae. Description: Zebrafish larvae podocyte injury screening: vascular eGFP (proteinuria) and glomerular mCherry (podocyte depletion) fluorescence ratios. Conditions: for podocyte protection in drug library screen: co-treatment 80 μM MTZ + 100 μM compound, 24 h from 4 to 5 dpf, 12 larvae per compound. The procedure: Groups of 12 larvae from one clutch were distributed into a 24-well plate (#662160 Greiner, Frickenhausen, Germany). For each clutch, 12 larvae were treated with 0.2% DMSO in E3 as negative control and 12 larvae were treated with 80 μM Metronidazole (MTZ) in DMSO in E3 as injury control and comparison group. The Fraunhofer ScreeningPort IME provided an epigenetic drug library which was used for this screening (Table 1). […] The treatment volume was 400 μl for each well with 12 larvae, the wells were sealed with Adhesive Clear PCR Seal (#600208, Biozym Scientific GMBH, Hessisch-Oldendorf) in order to prevent evaporation and plates were incubated at 28.5° C., wrapped in aluminum foil to prevent effects of light. After 24 hours, compounds were washed out in three changes of 0.5×E3.
After washout at 5 dpf, E3 in the 12-well plate was replaced with E3 containing 0.4 mg/ml tricaine. Larvae were then individually transferred into wells of a 96-well plate (#644101, Greiner) which was prepared with custom agarose molds. For the molds, 45 μl of 0.7% boiling hot agarose (Biozym LE agarose) were transferred with a multichannel pipette into each well. After 3 min cooldown, a custom 3D printed orientation tool (Wittbrodt, Jonas N., Urban Liebel, and Jochen Gehrig. “Generation of orientation tools for automated zebrafish screening assays using desktop 3D printing.” BMC biotechnology 14.1 (2014): 1-6) was inserted into the agarose which produced cavities for orientation. Each larva was transferred with 100 μl tricaine containing E3 into the single wells of the 96-well plate (Row A was always 12×DMSO, Row B was always 12×MTZ, Row C-H were compounds+MTZ) and was then oriented laterally in the molds with a short piece of fishing line glued to a bend injection needle under the stereomicroscope manually with special attention to a flat caudal region.
Image acquisition for the screening was performed with an Imaging Machine ([…] Imaging GmbH, Heidelberg, Germany). […] Overview images of each laterally oriented larva were obtained with a 2× objective (40% LED intensity, 30 ms integration). For each larva, a region of interest (ROI) at the tail region caudal of the cloaca was selected with the Acquifer PlateViewer (V1.7.1, […]) for the 10× objective in order to image the blood flow and vasculature. After creating custom modificated imaging scripts via FIJI (Schindelin, Johannes, et al. “Fiji: an open-source platform for biological-image analysis.” Nature methods 9.7 (2012): 676-682), 10 consecutive brightfield frames at a framerate of 33 Hz were acquired (10× objective, 100% LED intensity, 30 ms integration) followed by one frame at 470 nm (10× objective, 50% LED intensity, 50 ms integration). […] The focal plane for both acquisitions was detected with a built-in two-step software autofocus (10× objective, 2×2 binning, 10% LED intensity, 10 ms integration, first step: 31 slices with 50 μm distance, second step: 10 slices with 10 μm slice distance, brightfield for the caudal vasculature, 555 nm for glomerular mCherry).
Following image acquisition, tricaine-containing E3 was washed out two times of each well and replaced by 150 μl E3. […] In this way, two values for the vascular eGFP fluorescence and two values for the glomerular mCherry fluorescence were obtained for each individual larva.

Data set [3] relates to wildtype (AB/TU strain) zebrafish larvae. Put plainly: Toxicity of belinostat treatment on wildtype zebrafish larvae. The conditions noted are these: 250 μM belinostat, treated for 48 hours, at day 8. Type of data set: in vivo. The method, then: Larvae were treated for 48 hours and edema as well as malformations were assessed until 8 dpf.
In the next data set the test system is Mice (C57BL/6). Description: NTS (nephrotoxic serum) induced glomerular injury in mice, plasma creatinine. The format is in vivo, mouse. Conditions: NTS with low dose belinostat (25 mg/kg) compared to NTS injury group. The procedure: Mice (C57BL/6) were treated with PBS (healthy control), NTS (nephrotoxic serum, injury control), NTS with low dose belinostat (25 mg/kg) and NTS with high dose belinostat (50 mg/kg).

The mark [4] stands for this setting: 10 μM compound + 80 μM MTZ vs MTZ alone.

For `CC(C)[C@H](C(=O)Nc1ccc(C(=O)NO)cc1)c1ccccc1` [AR-42, N-hydroxy-4-[[(2S)-3-methyl-2-phenylbutanoyl]amino]benzamide], in data set [1], the “edema progression/formation at 10 μM” value is recorded as “able to prevent proteinuric edema”, the “lethality at 100 μM” value is “lethal”, the “effect in terms of proteinuric edema progression/formation” value was “protective effect” and the “progression of podocyte injury induced in the disease model” value (“progression of podocyte injury induced” below) is on record as “significantly slowed the progression of podocyte injury”.

As to `C#Cc1cccc(Nc2ncnc3cc(OC)c(OCCCCCCC(=O)NO)cc23)c1` [CUDC-101, 7-[4-(3-ethynylanilino)-7-methoxyquinazolin-6-yl]oxy-N-hydroxyheptanamide], in data set [1], the “most effective concentration for prevention of proteinuric edema” value worked out at 10 µM, the “effect in terms of proteinuric edema progression/formation” value is “protective effect” and the “progression of podocyte injury induced” value is reported as “significantly slowed the progression of podocyte injury”.

With `O=C(/C=C/c1ccc(CN(CCO)CCc2c[nH]c3ccccc23)cc1)NO` [Dacinostat, (E)-N-hydroxy-3-[4-[[2-hydroxyethyl-[2-(1H-indol-3-yl)ethyl]amino]methyl]phenyl]prop-2-enamide], in data set [1], the “edema progression/formation at 10 μM” value is listed as “successfully prevented edema formation”, the “lethality at 100 μM” value is listed as “lethal”, the “effect in terms of proteinuric edema progression/formation” value is recorded as “protective effect” and the “progression of podocyte injury induced” value is “significantly slowed the progression of podocyte injury”.

For the compound `O=C(CCCCCN1C(=O)c2cccc3cccc(c23)C1=O)NO` [Scriptaid, 6-(1,3-Dioxo-1H,3H-benzo[de]isoquinolin-2-yl)-N-hydroxyhexanamide], in data set [1], the “edema progression/formation at 10 μM” value was “successfully prevented edema progression”, the “lethality at 100 μM” value is given as “in the lethal range”, the “effect in terms of proteinuric edema progression/formation” value is reported as “protective effect” and the “progression of podocyte injury induced” value is “significantly slowed the progression of podocyte injury”.

`O=C(CCCCCCC(=O)Nc1ccccc1)NO` [Vorinostat, N′-hydroxy-N-phenyloctanediamide]: the “formation of moderate (type 3) edema” value in data set [1] (100 μM compound in conjunction with MTZ, 6 dpf) was “able to prevent formation of moderate edema”. For the same compound, in data set [1], the “effect in terms of proteinuric edema progression/formation” value is given as “protective effect” and the “progression of podocyte injury induced” value is reported as “significantly slowed the progression of podocyte injury”.

For `O=C(/C=C/c1cccc(S(=O)(=O)Nc2ccccc2)c1)NO` [belinostat, (2E)-N-hydroxy-3-[3-(phenylsulfamoyl)phenyl]prop-2-enamide], the “loss of podocyte mCherry fluorescence (glomerular fluorescence ratio 6 dpf/5 dpf)” value in data set [2] (setting [4]) is “significantly reduced loss of podocyte mCherry fluorescence”. Also, the “renal leakage of 78 kDa VDP-eGFP through the glomerular filtration barrier (vascular eGFP fluorescence ratio 6 dpf/5 dpf)” value in data set [2] (setting [4]) is on record as “could prevent the renal leakage”. Also, the “harmful effect on the glomerular filtration barrier or podocyte vitality” value in data set [2] (10 μM compound alone, without MTZ injury) is reported as “no harmful effect”. Besides, the “podocyte protection in drug library screen” value in data set [2] is on record as “podocyte-protective”. Moreover, the “larvae with type 4 edema” value is on record as 44.2% in data set [1] (MTZ + 1 μM belinostat, 8 dpf (MTZ group 58.2%)); 34.5% in data set [1] (MTZ + 10 μM belinostat, 8 dpf (MTZ group 58.2%)); 0% in data set [1] (MTZ + 100 μM belinostat, 6 dpf (MTZ group 31%)); 28.3% in data set [1] (MTZ + 100 μM belinostat, 8 dpf (MTZ group 58.2%)). In addition, the “larvae with edema formation” value is 80.8% in data set [1] (MTZ + 1 μM belinostat, 8 dpf (MTZ group 83.6%)); 80% in data set [1] (MTZ + 10 μM belinostat, 8 dpf (MTZ group 83.6%)); 15% in data set [1] (MTZ + 100 μM belinostat, 6 dpf (MTZ group 60%)); 64.2% in data set [1] (MTZ + 100 μM belinostat, 8 dpf (MTZ group 83.6%)). Further, the “larvae with edema (contrasted with type 4 edema of MTZ group)” value in data set [1] (MTZ + 100 μM belinostat, 7 dpf (MTZ group type 4 edema 56.4%)) was found to be 1.9%. Besides, the “progression of edema formation” value in data set [1] (MTZ + 1, 10 or 100 μM belinostat, 7 dpf, dose-dependent) is given as “decelerated”. Further, the “number of larvae with type 3 and 4 edema” value in data set [1] (MTZ + 1, 10 or 100 μM belinostat, after washout at 6 dpf, dose-dependent) is “reduced number of larvae with type 3 and 4 edema”. Moreover, the “edema progression with continuous treatment” value in data set [1] (MTZ from 4-6 dpf and continuously belinostat until 8 dpf, vs belinostat until day 6) is “ameliorated most”. Moreover, in data set [1] (belinostat treatment groups, 8 dpf), the “delay in edema formation” value is on record as “stayed consistent”. Moreover, the “progression of podocyte injury induced” value in data set [1] is “significantly slowed the progression of podocyte injury”. Besides, the “larvae for which treatment is lethal” value in data set [3] is 35%. Besides, in the data set with Mice (C57BL/6), the plasma creatinine concentration result is given as “reduce plasma creatine concentrations significantly”.

Regarding `O=C(/C=C/C#Cc1cccc(NS(=O)(=O)c2ccccc2)c1)NO` [oxamflatin, 5-[3-(benzenesulfonamido)phenyl]-N-hydroxypent-2-en-4-ynamide], in data set [2], the “podocyte protection in drug library screen” value is listed as “podocyte-protective”. In data set [1], the “most effective concentration for prevention of proteinuric edema” value worked out at 100 µM and the “progression of podocyte injury induced” value is “significantly slowed the progression of podocyte injury”.
